In brackets after ≈: the same amount, converted by molar mass. A value given as a limit tells only on which side of the number the result lay.

What is called MIC50 is the lowest concentration that inhibits either 50% of growth or 50% of the strains tested, depending on the study. Low readings indicate higher susceptibility, high ones lower susceptibility. By MIC80 is commonly meant an inhibitory concentration at the 80% level, which refers to growth in some studies and to a panel of isolates in others. A low value points to greater potency. As a reminder, the MIC90 is an inhibitory concentration at the 90% level, which refers to growth in some studies and to a panel of isolates in others. Low values mean higher susceptibility, high ones lower susceptibility.

Common to all, as to format: functional
Assay [1] concerns Streptococcus pneumoniae. The experiment in a line: Antibacterial activity against levofloxacin-intermediate and levofloxacin-resistant Streptococcus pneumoniae after 18 hrs by microbroth dilution method.
For a further assay, the system named is Pseudomonas aeruginosa. The experiment in a line: Antibacterial activity against Pseudomonas aeruginosa PAO1 after 18 hrs by microbroth dilution method. The note with it: PAO1, 18 h.
For another assay, the system named is Moraxella catarrhalis. Put plainly: Antibacterial activity against Moraxella catarrhalis ATCC 25238 after 18 hrs by microbroth dilution method. The note with it: ATCC 25238, 18 h. (In general: Broth dilution looks for growth in wells or tubes with falling amounts of substance.)
The test system of a further assay is Haemophilus influenzae. The experiment in a line: Antibacterial activity against Haemophilus influenzae ATCC 49247 after 18 hrs by microbroth dilution method. The note with it: ATCC 49247, 18 h.
The next assay has as its system Escherichia coli. The experiment in a line: Antibacterial activity against Escherichia coli NIHJ after 18 hrs by microbroth dilution method.
Another assay has as its system Bacillus subtilis. Put plainly: Antibacterial activity against Bacillus subtilis IID 685 after 18 hrs by microbroth dilution method. The note with it: IID 685, 18 h.
A further assay concerns Streptococcus pyogenes. The experiment in a line: Antibacterial activity against Streptococcus pyogenes G-36 after 18 hrs by microbroth dilution method. The note with it: G-36, 18 h.
Assay [2] has as its system Streptococcus pneumoniae. Put plainly: Antibacterial activity against quinolone, penicillin-resistant Streptococcus pneumoniae 104835 after 18 hrs by microbroth dilution method. The note with it: Streptococcus pneumoniae, 104835, 18 h.
Assay [3] concerns Streptococcus pneumoniae. Put plainly: Antibacterial activity against penicillin-susceptible Streptococcus pneumoniae J24 after 18 hrs by microbroth dilution method. The note with it: J24, 18 h.
The test system of the next assay is Staphylococcus aureus. Put plainly: Antibacterial activity against levofloxacin-resistant and methicillin-resistant Staphylococcus aureus 870307 after 18 hrs by microbroth dilution method. The note with it: Staphylococcus aureus, 870307, 18 h.
Assay [4] has as its system Chlamydia pneumoniae. The experiment in a line: Antibacterial activity against Chlamydophila pneumoniae CM-1 after 18 hrs by microbroth dilution method. The note with it: CM-1, 18 h.
Assay [5] has as its system Chlamydia pneumoniae. Put plainly: Antibacterial activity against Chlamydophila pneumoniae AR39 after 18 hrs by microbroth dilution method. The note with it: AR39, 18 h.
In assay [6] the test system is Mycoplasmoides pneumoniae. The experiment in a line: Antibacterial activity against Mycoplasma pneumoniae ATCC 29085 after 18 hrs by microbroth dilution method. The note with it: ATCC 29085, 18 h.
Assay [7] deals with Mycoplasmoides pneumoniae. The experiment in a line: Antibacterial activity against Mycoplasma pneumoniae 18-1 after 18 hrs by microbroth dilution method. The note with it: 18-1, 18 h.

Turning to `CC[C@H]1OC(=O)[C@H](C)[C@@H](O[C@H]2C[C@@](C)(OC)[C@@H](O)[C@H](C)O2)[C@H](C)[C@@H](O[C@@H]2O[C@H](C)C[C@H](N(C)C)[C@H]2O)[C@](C)(O)C[C@@H](C)CN(C)[C@H](C)[C@@H](O)[C@]1(C)O` [AZITHROMYCIN], in the assay with Streptococcus pneumoniae [1], the MIC50 was above 32 µg/mL, the MIC80 is above 32 µg/mL and the MIC90 is above 32 µg/mL.
Consider `O=C(O)c1cn(C2CC2)c2cc(N3CCNCC3)c(F)cc2c1=O` [CIPROFLOXACIN], for which, in the assay on Streptococcus pneumoniae [1], the MIC50 turned out to be 16 µg/mL (≈ 48.3 µM). In the assay with Streptococcus pneumoniae [1], this compound came in with an MIC80 of 32 µg/mL (≈ 96.6 µM). Moreover, the MIC90 in the assay on Streptococcus pneumoniae [1] turned out to be 32 µg/mL (≈ 96.6 µM). The MIC with Pseudomonas aeruginosa is 0.05 µg/mL (≈ 0.151 µM); with Moraxella catarrhalis, 0.025 µg/mL (≈ 0.0754 µM); in the assay with Haemophilus influenzae it was 0.006 µg/mL (≈ 0.0181 µM); against Escherichia coli it was below 0.003 µg/mL; against Bacillus subtilis, 3.12 µg/mL (≈ 9.42 µM); against Streptococcus pyogenes, 1.56 µg/mL (≈ 4.71 µM). The results for the MIC in the assay with Streptococcus pneumoniae [2], against Streptococcus pneumoniae [3] and against Staphylococcus aureus were above 6.25 µg/mL, 0.78 µg/mL (≈ 2.35 µM) and above 6.25 µg/mL, respectively.
In the case of `CO/N=C1\CN(c2nc3c(cc2F)c(=O)c(C(=O)O)cn3C2CC2)CC1CN` (stereo not given) [GEMIFLOXACIN], the MIC against Chlamydia pneumoniae [4] turned out to be 0.063 µg/mL (≈ 0.162 µM); against Chlamydia pneumoniae [5], 0.125 µg/mL (≈ 0.321 µM); in assay [6] it was 0.25 µg/mL (≈ 0.642 µM); in assay [7], 0.25 µg/mL (≈ 0.642 µM).
Regarding `CC1(C)S[C@@H]2[C@H](NC(=O)[C@H](N)c3ccc(O)cc3)C(=O)N2[C@H]1C(=O)O` [AMOXICILLIN], in the assay on Streptococcus pneumoniae [1], the MIC50 was 0.06 µg/mL (≈ 0.164 µM), the MIC80 was found to be 2 µg/mL (≈ 5.47 µM) and the MIC90 came out at 2 µg/mL (≈ 5.47 µM).
`CC[C@H]1OC(=O)[C@H](C)[C@@H](O[C@H]2C[C@@](C)(OC)[C@@H](O)[C@H](C)O2)[C@H](C)[C@@H](O[C@@H]2O[C@H](C)C[C@H](N(C)C)[C@H]2O)[C@](C)(OC)C[C@@H](C)C(=O)[C@H](C)[C@@H](O)[C@]1(C)O` [CLARITHROMYCIN]: in the assay with Streptococcus pneumoniae [1], the MIC50 is above 32 µg/mL, the MIC80 is above 32 µg/mL and the MIC90 was above 32 µg/mL.

(Values after ChEMBL document CHEMBL2321831, “Design, synthesis, and biological evaluations of novel 7-[7-amino-7-methyl-5-azaspiro[2.4]heptan-5-yl]-8-methoxyquinolines with potent antibacterial activity against respiratory pathogens” (J Med Chem, 2013).)
